Experimental data reported in ChEMBL document CHEMBL1201862, “PubChem BioAssay data set” (2004).
The source made the active and inactive calls.

Tests used:
[1] = system: HeLa; test: HeLa cell cytotoxicity, dose response, cytotoxicity control for MITF activator project, CellTiter-Glo luminescence, cherry-pick samples (AID 540259); assay type: functional, cell-based; conditions: Homo sapiens
[2] = system: Escherichia coli; test: microbe, parasite or virus in culture
[3] = target: Cytochrome P450 2C19 (Homo sapiens, UniProt P33261); test: Cytochrome panel assay with activity outcomes. Panel member name: p450-cyp2c19 Compounds with AC50 equal or less than 10 uM are considered active; assay type: functional
Cytochrome P450 2C19, sequence (P33261 whole entry): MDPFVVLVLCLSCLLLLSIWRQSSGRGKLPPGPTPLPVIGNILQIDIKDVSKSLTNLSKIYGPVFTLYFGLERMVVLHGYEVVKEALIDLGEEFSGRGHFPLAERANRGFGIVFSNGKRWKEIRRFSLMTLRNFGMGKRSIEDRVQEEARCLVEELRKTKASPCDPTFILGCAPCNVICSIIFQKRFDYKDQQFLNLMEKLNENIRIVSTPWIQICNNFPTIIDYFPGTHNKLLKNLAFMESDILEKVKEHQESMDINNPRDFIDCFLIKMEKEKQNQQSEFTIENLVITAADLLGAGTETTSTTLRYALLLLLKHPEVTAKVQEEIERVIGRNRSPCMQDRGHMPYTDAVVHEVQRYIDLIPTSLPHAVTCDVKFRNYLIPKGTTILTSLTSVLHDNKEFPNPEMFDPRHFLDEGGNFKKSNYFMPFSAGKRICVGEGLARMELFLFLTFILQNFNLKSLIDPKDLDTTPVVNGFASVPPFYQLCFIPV

[4] = target: T1, Cytochrome P450 1A2 (Homo sapiens, UniProt P05177);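 also: PubChem cytochrome P450 panel assay, CYP1A2 panel member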
T1 sequence (P05177 whole entry): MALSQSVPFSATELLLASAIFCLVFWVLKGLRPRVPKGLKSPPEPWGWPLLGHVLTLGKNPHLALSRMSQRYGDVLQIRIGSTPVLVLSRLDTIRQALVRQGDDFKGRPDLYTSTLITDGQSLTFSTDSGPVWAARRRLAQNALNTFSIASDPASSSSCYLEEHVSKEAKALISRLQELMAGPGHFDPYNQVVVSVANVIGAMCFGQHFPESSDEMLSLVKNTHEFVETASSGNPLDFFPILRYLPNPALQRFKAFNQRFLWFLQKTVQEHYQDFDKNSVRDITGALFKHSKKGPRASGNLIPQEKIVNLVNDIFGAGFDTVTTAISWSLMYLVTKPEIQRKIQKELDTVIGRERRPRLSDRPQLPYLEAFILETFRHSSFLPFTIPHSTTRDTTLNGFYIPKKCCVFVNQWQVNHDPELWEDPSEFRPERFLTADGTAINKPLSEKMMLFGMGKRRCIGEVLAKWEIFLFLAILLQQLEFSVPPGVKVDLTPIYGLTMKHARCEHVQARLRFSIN

[5] = target: Cytochrome P450 3A4 (Homo sapiens, UniProt P08684);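 also: CYP3A4 tested as one member of a cytochrome P450 panel screen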
Cytochrome P450 3A4, sequence (P08684 whole entry): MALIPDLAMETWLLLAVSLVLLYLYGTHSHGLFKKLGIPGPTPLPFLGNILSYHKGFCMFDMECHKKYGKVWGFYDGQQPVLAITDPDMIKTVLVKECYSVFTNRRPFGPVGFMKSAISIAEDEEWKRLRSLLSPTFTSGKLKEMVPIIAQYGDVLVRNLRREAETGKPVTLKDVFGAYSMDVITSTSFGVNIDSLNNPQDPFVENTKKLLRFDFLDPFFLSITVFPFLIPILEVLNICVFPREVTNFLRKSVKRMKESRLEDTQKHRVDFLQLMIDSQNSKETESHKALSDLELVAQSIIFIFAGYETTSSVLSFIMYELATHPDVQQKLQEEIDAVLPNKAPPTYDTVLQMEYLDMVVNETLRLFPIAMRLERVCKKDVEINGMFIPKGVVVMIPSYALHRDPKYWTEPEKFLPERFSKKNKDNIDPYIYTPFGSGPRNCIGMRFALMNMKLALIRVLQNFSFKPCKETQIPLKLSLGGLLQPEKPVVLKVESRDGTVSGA

[6] = target: T2, Exodeoxyribonuclease V (Escherichia coli (strain K12), UniProt P04993+P07648+P08394); test: E. coli RecBCD inhibitors, dose response, counter-screen for AddAB inhibitor project, absorbance, V66 E. coli, mutant T4 phage (AID 492957); assay type: functional, cell-based, Escherichia coli str. K-12 substr. MG1655
T2 sequence (P04993 whole entry): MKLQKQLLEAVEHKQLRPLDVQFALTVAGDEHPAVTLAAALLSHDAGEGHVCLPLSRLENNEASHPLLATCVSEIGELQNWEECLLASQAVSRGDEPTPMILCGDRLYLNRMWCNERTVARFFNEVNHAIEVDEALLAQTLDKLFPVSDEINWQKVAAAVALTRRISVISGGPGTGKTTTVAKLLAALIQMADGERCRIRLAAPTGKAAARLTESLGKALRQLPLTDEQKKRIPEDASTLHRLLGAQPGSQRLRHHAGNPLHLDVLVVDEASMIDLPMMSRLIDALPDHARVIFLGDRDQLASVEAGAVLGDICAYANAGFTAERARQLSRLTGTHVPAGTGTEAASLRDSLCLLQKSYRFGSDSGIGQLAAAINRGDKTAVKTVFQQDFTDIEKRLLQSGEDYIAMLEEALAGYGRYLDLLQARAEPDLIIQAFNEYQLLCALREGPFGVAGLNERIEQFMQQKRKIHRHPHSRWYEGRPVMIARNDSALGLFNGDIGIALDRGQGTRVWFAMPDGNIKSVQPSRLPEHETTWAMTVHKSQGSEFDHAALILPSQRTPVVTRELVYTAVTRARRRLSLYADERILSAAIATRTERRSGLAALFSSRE
T2 sequence (P07648 whole entry): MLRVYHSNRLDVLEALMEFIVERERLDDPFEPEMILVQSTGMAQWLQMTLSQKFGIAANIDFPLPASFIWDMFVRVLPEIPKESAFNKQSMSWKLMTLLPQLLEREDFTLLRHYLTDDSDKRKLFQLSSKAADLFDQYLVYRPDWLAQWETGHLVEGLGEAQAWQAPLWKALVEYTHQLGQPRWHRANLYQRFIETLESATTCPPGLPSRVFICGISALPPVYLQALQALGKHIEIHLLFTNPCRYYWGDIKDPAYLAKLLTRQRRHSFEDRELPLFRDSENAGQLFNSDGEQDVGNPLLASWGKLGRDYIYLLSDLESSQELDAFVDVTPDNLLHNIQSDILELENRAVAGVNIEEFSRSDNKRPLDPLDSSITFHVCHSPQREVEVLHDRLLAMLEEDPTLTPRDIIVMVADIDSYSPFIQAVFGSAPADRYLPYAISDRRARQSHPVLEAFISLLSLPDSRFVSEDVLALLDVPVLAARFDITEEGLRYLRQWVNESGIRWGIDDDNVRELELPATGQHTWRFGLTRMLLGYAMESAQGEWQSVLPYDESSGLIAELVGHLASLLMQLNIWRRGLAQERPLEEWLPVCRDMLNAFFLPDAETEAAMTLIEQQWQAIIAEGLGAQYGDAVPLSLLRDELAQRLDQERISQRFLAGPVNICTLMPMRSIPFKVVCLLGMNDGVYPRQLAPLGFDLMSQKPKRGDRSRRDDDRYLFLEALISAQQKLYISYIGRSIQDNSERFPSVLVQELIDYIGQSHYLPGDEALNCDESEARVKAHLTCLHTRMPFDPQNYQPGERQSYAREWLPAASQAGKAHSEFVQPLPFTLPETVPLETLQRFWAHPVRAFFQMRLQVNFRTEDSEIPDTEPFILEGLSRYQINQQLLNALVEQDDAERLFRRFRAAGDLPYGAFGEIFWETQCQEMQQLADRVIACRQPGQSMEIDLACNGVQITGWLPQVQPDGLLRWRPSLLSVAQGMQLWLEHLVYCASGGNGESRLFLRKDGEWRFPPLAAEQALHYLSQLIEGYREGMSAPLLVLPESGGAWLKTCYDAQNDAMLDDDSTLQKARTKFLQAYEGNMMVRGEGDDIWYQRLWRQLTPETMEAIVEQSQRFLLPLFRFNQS
T2 sequence (P08394 whole entry): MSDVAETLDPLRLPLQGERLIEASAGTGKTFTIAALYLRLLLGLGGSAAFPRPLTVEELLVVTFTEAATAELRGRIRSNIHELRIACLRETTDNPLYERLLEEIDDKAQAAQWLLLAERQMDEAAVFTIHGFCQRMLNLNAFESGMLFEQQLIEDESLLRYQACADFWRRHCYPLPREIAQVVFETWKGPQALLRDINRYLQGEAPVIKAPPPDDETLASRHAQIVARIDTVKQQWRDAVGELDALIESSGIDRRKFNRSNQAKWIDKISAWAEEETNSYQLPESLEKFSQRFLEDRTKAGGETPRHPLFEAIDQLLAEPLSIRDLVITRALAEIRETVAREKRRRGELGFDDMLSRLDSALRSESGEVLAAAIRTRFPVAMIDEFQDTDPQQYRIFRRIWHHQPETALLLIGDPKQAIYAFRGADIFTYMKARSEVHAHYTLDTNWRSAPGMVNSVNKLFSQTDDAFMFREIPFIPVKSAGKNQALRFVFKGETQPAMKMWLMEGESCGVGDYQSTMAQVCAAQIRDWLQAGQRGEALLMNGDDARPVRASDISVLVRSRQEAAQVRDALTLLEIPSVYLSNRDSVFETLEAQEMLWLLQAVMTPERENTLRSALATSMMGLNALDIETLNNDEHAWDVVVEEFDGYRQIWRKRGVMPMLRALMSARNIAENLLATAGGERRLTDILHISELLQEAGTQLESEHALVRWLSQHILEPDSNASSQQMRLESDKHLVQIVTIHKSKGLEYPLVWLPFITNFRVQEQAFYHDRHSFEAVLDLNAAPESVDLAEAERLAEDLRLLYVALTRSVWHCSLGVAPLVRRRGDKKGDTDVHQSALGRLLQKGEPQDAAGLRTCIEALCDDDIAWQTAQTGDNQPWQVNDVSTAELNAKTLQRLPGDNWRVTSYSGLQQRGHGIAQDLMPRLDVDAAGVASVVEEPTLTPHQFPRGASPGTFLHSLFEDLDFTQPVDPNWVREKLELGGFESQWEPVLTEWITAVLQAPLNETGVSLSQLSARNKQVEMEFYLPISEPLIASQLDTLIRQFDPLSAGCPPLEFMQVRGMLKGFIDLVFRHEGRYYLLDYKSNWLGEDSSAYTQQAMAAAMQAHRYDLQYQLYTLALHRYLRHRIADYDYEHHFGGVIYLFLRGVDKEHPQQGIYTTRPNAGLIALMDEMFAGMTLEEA

[7] = Counterscreen for AddAB inhibitors: absorbance-based bacterial cell-based high throughput dose response assay for inhibitors of bacterial viability. [Related pubchem assays (depositor defined):AID435030, AID449728, AID449731, AID488942, AID488955, AID488956]; assay type: functional
[8] = system: HEK293; test: cells; conditions: Homo sapiens
[9] = system: HEK293; test: cells; conditions: Homo sapiens; remark: listed apart in the source
[10] = target: Cytochrome P450 2C9 (Homo sapiens, UniProt P11712)
Cytochrome P450 2C9, sequence (P11712 whole entry): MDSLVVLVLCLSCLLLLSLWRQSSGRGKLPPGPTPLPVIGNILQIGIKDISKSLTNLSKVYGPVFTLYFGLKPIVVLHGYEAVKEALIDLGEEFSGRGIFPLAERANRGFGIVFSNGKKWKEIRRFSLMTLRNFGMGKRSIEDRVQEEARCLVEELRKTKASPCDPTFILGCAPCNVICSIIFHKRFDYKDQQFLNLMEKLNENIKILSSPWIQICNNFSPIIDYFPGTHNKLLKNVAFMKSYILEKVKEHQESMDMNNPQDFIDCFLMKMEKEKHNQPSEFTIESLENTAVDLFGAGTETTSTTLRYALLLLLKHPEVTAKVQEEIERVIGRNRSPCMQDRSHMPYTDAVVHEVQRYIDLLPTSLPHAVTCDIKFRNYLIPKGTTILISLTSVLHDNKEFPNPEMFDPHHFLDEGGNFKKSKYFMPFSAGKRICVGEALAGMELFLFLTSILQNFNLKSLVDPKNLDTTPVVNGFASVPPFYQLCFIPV

[11] = A cytotoxicity screen of small molecule inhibitors of the PhoP region in Salmonella typhi identified in the primary screen. [Related pubchem assays: 1850, 1864, 1985 ]; assay type: functional
[12] = target: Paired box protein Pax-8 (Homo sapiens, UniProt Q06710); test: inhibitors of PAX8-driven TPO luciferase reporter, dose response, RMG-I cells, cherry-pick (AID 687027); assay type: functional, cell-based;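 also: luciferase reporter driven by Pax8 target thyroperoxidase promoter measured by SteadyGlo luminescence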
Paired box protein Pax-8, sequence (Q06710 whole entry, the tested form may be a part): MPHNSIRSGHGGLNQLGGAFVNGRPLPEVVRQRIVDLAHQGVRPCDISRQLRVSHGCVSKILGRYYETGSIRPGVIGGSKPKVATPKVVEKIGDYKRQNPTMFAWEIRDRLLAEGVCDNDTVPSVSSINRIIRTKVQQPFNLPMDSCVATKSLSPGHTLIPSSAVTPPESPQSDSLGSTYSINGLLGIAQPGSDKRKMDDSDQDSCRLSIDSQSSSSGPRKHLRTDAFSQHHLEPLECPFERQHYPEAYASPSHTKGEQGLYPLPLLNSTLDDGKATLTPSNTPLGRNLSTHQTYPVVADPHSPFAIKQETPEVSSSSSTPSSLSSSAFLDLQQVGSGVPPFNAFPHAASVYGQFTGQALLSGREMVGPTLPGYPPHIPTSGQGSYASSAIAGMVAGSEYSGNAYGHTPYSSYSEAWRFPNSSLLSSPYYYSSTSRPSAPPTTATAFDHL

[13] = target: Disintegrin and metalloproteinase domain-containing protein 17 (Homo sapiens, UniProt P78536); test: exosite inhibitors of ADAM17, dose response, biochemical (AID 743260)
Disintegrin and metalloproteinase domain-containing protein 17, sequence (P78536 whole entry, the tested form may be a part): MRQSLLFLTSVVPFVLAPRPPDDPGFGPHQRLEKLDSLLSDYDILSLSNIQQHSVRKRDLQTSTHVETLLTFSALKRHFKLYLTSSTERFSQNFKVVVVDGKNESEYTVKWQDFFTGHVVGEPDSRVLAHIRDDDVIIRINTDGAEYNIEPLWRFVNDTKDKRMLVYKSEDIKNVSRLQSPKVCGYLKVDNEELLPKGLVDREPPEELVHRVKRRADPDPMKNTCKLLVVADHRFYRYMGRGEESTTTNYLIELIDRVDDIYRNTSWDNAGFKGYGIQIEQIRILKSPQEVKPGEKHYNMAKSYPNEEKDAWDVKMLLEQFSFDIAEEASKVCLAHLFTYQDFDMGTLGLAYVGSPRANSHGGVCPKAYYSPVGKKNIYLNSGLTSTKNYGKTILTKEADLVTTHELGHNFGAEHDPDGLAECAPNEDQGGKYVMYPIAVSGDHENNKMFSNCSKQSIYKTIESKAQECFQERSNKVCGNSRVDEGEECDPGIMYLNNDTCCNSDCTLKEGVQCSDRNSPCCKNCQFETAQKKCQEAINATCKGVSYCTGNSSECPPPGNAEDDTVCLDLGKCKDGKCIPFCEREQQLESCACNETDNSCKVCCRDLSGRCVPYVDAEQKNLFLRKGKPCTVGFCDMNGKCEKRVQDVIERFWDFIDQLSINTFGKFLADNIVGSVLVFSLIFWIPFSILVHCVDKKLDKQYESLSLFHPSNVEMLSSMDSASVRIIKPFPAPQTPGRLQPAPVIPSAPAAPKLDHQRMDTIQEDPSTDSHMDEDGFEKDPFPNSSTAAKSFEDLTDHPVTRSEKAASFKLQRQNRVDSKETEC

Question: Which AC50 [1] does the source give for `CCC(=O)NCCc1nc2cc(NC(=O)c3ccc(Cl)cc3)ccc2n1C` here?
Answer: 250 µM (active)

Question: For `COc1ccc(N(CC(=O)NCc2ccc(Cl)cc2)S(=O)(=O)c2ccccc2[N+](=O)[O-])c(OC)c1`, which AC50 [2] is on record?
Answer: 23.3 µM (active)

Question: With `Cc1ccc(C)c(N2CCN(c3ccc4cc(S(=O)(=O)N5CCCCC5)ccc4n3)CC2)c1` as the molecule, how does the AC50 [2] read?
Answer: 27.6 µM (active)

Question: Which results are given for `CCNc1ncc2nc(-c3ccc(Cl)cc3)c(=O)n(Cc3ccc(F)cc3)c2n1`?
Answer: AC50 [3]: inconclusive; AC50 [4]: 12.6 µM (inconclusive); AC50 [5]: inconclusive

Question: What does the source list for `FC(F)Oc1ccc(NC(S)=NCc2nc3ccccc3[nH]2)cc1`?
Answer: IC50 [6]: > 119 µM (inactive); IC50 [7]: > 119 µM (inactive)

Question: For `Cc1cc(C(=O)CN2C(=O)NC3(CCCCC3C)C2=O)c(C)n1Cc1cccs1` (centres undefined), which AC50 [1] is on record?
Answer: > 350 µM (inactive)

Question: For `Cc1ccc(NC(=O)CSCC(=O)Nc2ccccc2N2CCCCC2)cc1`, which EC50 [8] is on record?
Answer: > 59.6 µM (inactive)

Question: And the EC50 [9]?
Answer: > 59.6 µM (inactive)

Question: Which AC50 [10] does the source give for `Cc1ccc(S(=O)(=O)NCC2CCC(C(=O)O)CC2)cc1` (centres undefined) here?
Answer: 0.1 µM (inconclusive)

Question: And the AC50 [5]?
Answer: inconclusive

Question: For `O=C(CNc1cccc(F)c1)N1CCc2ccccc2C1`, which AC50 [1] is on record?
Answer: 157 µM (active)

Question: With `O=C(CCc1nc2cccnc2n1Cc1ccccc1)N1CCOCC1` as the molecule, how does the AC50 [2] read?
Answer: 28.4 µM (active)

Question: Which AC50 [3] does the source give for `COc1ccccc1NC(=O)N1CCC(c2nnc(SCC(N)=O)n2C)CC1` here?
Answer: inconclusive

Question: And the AC50 [5]?
Answer: inconclusive

Question: Which EC50 [11] does the source give for `CCCCCC(CC(=O)NO)C(=O)NC(C(=O)N1CCCC1CO)C(C)C` (centres undefined) here?
Answer: > 50 µM (active)

Question: What about the IC50 [6] of the same molecule?
Answer: > 39.5 µM (inactive)

Question: And the IC50 [7]?
Answer: 77.6 µM (inactive)

Question: And the AC50 [12]?
Answer: 5.27 µM (active)

Question: What about the IC50 [13] of the same molecule?
Answer: 3.59 µM (active)

Question: For `CCOC(=O)c1c(CSc2ccccc2)n(C)c2cc(Br)c(O)c(CN(C)C)c12` [UMIFENOVIR], which EC50 [8] is on record?
Answer: > 59.7 µM (inactive)

Question: What about the EC50 [9] of the same molecule?
Answer: > 59.7 µM (inactive)
